Calls of active or inactive are those of the source. The rule behind the calls is not given here.
Species: Homo sapiens
Experiment: Activity at human P-glycoprotein assessed as ATPase activity using firefly luciferase at 200 uM by Pgp-Glo assay in presence of MgATP

Compound | Activity
CN1CC[C@]23c4c5ccc(O)c4O[C@H]2C(=O)CC[C@@]3(O)[C@H]1C5 | inactive
O=C1CC[C@@]2(O)[C@H]3Cc4ccc(O)c5c4[C@@]2(CCN3CC2CC2)[C@H]1O5 | inactive
C=CCN1CC[C@]23c4c5ccc(O)c4O[C@H]2C(=O)CC[C@@]3(O)[C@H]1C5 | inactive
O=C1CC[C@@]2(O)[C@H]3Cc4ccc(O)c5c4[C@@]2(CCN3CCCc2ccccc2)[C@H]1O5 | Active
O=C1CC[C@@]2(O)[C@H]3Cc4ccc(O)c5c4[C@@]2(CCN3Cc2ccccc2)[C@H]1O5 | Active
O=C1CC[C@@]2(O)[C@H]3Cc4ccc(O)c5c4[C@@]2(CCN3CCc2ccccc2)[C@H]1O5 | Active
C/C=C/CN1CC[C@]23c4c5ccc(O)c4O[C@H]2C(=O)CC[C@@]3(O)[C@H]1C5 | Active
CC(C)=CCN1CC[C@]23c4c5ccc(O)c4O[C@H]2C(=O)CC[C@@]3(O)[C@H]1C5 | inactive
C=C(C)CN1CC[C@]23c4c5ccc(O)c4O[C@H]2C(=O)CC[C@@]3(O)[C@H]1C5 | Active

— ChEMBL document CHEMBL3351858, “Opioids and efflux transporters. Part 4: influence of N-substitution on P-glycoprotein substrate activity of noroxymorphone analogues” (Bioorg Med Chem Lett, 2014)
